Source: ChEMBL document CHEMBL1201862, “PubChem BioAssay data set” (2004)
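Test compounds were applied to cells in 96-well plates for 48 hours at 5 doses. At the GI50, growth is halved.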 Activity calls are given as the source filed them. No stated cut-off is given here; in the data, active = GI50 up to about 1.1 µM and inactive = higher.

How the values were obtained:
Assay in all cases: NCI-60 cell line screen, 48 h
SN12C = system: SN12C
NCI/ADR-RES = system: NCI/ADR-RES
HT-29 = system: HT-29
UACC-62 = system: UACC-62
CCRF-CEM = system: CCRF-CEM
T47D = system: T47D
M14 = system: M14
COLO 205 = system: COLO 205
OVCAR-4 = system: OVCAR-4
TK-10 = system: TK-10
NCI-H226 = system: NCI-H226
OVCAR-5 = system: OVCAR-5
A498 = system: A498
SNB-19 = system: SNB-19
LOX IMVI = system: LOX IMVI
OVCAR-3 = system: OVCAR-3
KM12 = system: KM12
786-0 = system: 786-0
PC-3 = system: PC-3
HCT-15 = system: HCT-15
IGROV-1 = system: IGROV-1
NCI-H522 = system: NCI-H522
EKVX = system: EKVX
DU-145 = system: DU-145
UACC-257 = system: UACC-257
SK-MEL-28 = system: SK-MEL-28
CAKI-1 = system: CAKI-1
UO-31 = system: UO-31
RPMI-8226 = system: RPMI-8226
MCF7 = system: MCF7
MOLT-4 = system: MOLT-4
SF-268 = system: SF-268
U-251 = system: U-251
A549 = system: A549
NCI-H460 = system: NCI-H460
HCC 2998 = system: HCC 2998
Hs-578T = system: Hs-578T
MDA-MB-231 = system: MDA-MB-231
OVCAR-8 = system: OVCAR-8
Malme-3M = system: Malme-3M
SNB-75 = system: SNB-75
K562 = system: K562
HCT-116 = system: HCT-116
HOP-62 = system: HOP-62
ACHN = system: ACHN
SW-620 = system: SW-620
BT-549 = system: BT-549
SF-295 = system: SF-295
MDA-MB-435 = system: MDA-MB-435
SK-MEL-5 = system: SK-MEL-5
SK-OV-3 = system: SK-OV-3
NCI-H23 = system: NCI-H23
RXF 393 = system: RXF 393
HOP-92 = system: HOP-92
MDA-N = system: MDA-N
SK-MEL-2 = system: SK-MEL-2
HL-60 = system: HL-60
SF-539 = system: SF-539

Structure (SMILES): Cc1ccc(N2C=Nn3c(nc4sc5c(c4c3=O)CCCC5)C2)cc1
- GI50 (SN12C): 63.8 µM (inactive)
- GI50 (NCI/ADR-RES): 70.3 µM (inactive)
- GI50 (HT-29): 47.1 µM (inactive)
- GI50 (UACC-62): > 100 µM (inactive)
- GI50 (CCRF-CEM): 45.2 µM (inactive)
- GI50 (T47D): 43.3 µM (inactive)
- GI50 (M14): 65.5 µM (inactive)
- GI50 (COLO 205): 67.8 µM (inactive)
- GI50 (OVCAR-4): 37.8 µM (inactive)
- GI50 (TK-10): 86.1 µM (inactive)
- GI50 (NCI-H226): 55 µM (inactive)
- GI50 (OVCAR-5): 62.5 µM (inactive)
- GI50 (A498): 54.5 µM (inactive)
- GI50 (SNB-19): 78.2 µM (inactive)
- GI50 (LOX IMVI): 47.4 µM (inactive)
- GI50 (OVCAR-3): 49.4 µM (inactive)
- GI50 (KM12): 62.4 µM (inactive)
- GI50 (786-0): 35.7 µM (inactive)
- GI50 (PC-3): 49.4 µM (inactive)
- GI50 (HCT-15): 48.2 µM
- GI50 (IGROV-1): 88.3 µM (inactive)
- GI50 (NCI-H522): 39.1 µM (inactive)
- GI50 (EKVX): 80 µM (inactive)
- GI50 (DU-145): 69.3 µM (inactive)
- GI50 (UACC-257): 54.8 µM (inactive)
- GI50 (SK-MEL-28): 93.5 µM (inactive)
- GI50 (CAKI-1): 46 µM (inactive)
- GI50 (UO-31): > 100 µM (inactive)
- GI50 (RPMI-8226): 32.1 µM (inactive)
- GI50 (MCF7): 38.3 µM (inactive)
- GI50 (MOLT-4): > 100 µM (inactive)
- GI50 (SF-268): 83 µM (inactive)
- GI50 (U-251): 46.7 µM (inactive)
- GI50 (A549): 47.4 µM (inactive)
- GI50 (NCI-H460): 50.1 µM (inactive)
- GI50 (HCC 2998): 39.9 µM (inactive)
- GI50 (Hs-578T): 28.1 µM (inactive)
- GI50 (MDA-MB-231): 43.6 µM (inactive)
- GI50 (OVCAR-8): 62.1 µM (inactive)
- GI50 (Malme-3M): 49.4 µM (inactive)
- GI50 (SNB-75): 52 µM (inactive)
- GI50 (K562): 38.5 µM (inactive)
- GI50 (HCT-116): 41.2 µM (inactive)
- GI50 (HOP-62): 21.2 µM (inactive)
- GI50 (ACHN): 46.5 µM (inactive)
- GI50 (SW-620): 51.8 µM (inactive)
- GI50 (BT-549): > 100 µM (inactive)
- GI50 (SF-295): 44.8 µM (inactive)
- GI50 (MDA-MB-435): 99.3 µM (inactive)
- GI50 (SK-MEL-5): 29.8 µM (inactive)
- GI50 (SK-OV-3): > 100 µM (inactive)
- GI50 (NCI-H23): 41.7 µM (inactive)
- GI50 (RXF 393): 24.8 µM (inactive)
- GI50 (HOP-92): > 100 µM (inactive)
- GI50 (MDA-N): 70.5 µM (inactive)
- GI50 (SK-MEL-2): > 100 µM (inactive)

Structure (SMILES): O=C(/C=C1\Nc2ccccc2N=C1NC12CC3CC(CC(C3)C1)C2)c1ccc(Br)cc1
- GI50 (SN12C): > 10 µM (inactive)
- GI50 (NCI/ADR-RES): > 10 µM (inactive)
- GI50 (HT-29): > 10 µM (inactive)
- GI50 (UACC-62): > 10 µM (inactive)
- GI50 (CCRF-CEM): > 10 µM (inactive)
- GI50 (T47D): > 10 µM (inactive)
- GI50 (M14): > 10 µM (inactive)
- GI50 (COLO 205): > 10 µM (inactive)
- GI50 (OVCAR-4): > 10 µM (inactive)
- GI50 (TK-10): > 10 µM (inactive)
- GI50 (NCI-H226): > 10 µM (inactive)
- GI50 (OVCAR-5): > 10 µM (inactive)
- GI50 (A498): > 10 µM (inactive)
- GI50 (SNB-19): > 10 µM (inactive)
- GI50 (LOX IMVI): > 10 µM (inactive)
- GI50 (OVCAR-3): > 10 µM (inactive)
- GI50 (KM12): > 10 µM (inactive)
- GI50 (786-0): > 10 µM (inactive)
- GI50 (PC-3): > 10 µM (inactive)
- GI50 (HCT-15): > 10 µM
- GI50 (IGROV-1): > 10 µM (inactive)
- GI50 (NCI-H522): > 10 µM (inactive)
- GI50 (EKVX): > 10 µM (inactive)
- GI50 (DU-145): > 10 µM (inactive)
- GI50 (UACC-257): > 10 µM (inactive)
- GI50 (SK-MEL-28): > 10 µM (inactive)
- GI50 (CAKI-1): > 10 µM (inactive)
- GI50 (UO-31): > 10 µM (inactive)
- GI50 (RPMI-8226): > 10 µM (inactive)
- GI50 (MCF7): > 10 µM (inactive)
- GI50 (MOLT-4): > 10 µM (inactive)
- GI50 (SF-268): > 10 µM (inactive)
- GI50 (U-251): > 10 µM (inactive)
- GI50 (A549): > 10 µM (inactive)
- GI50 (NCI-H460): > 10 µM (inactive)
- GI50 (HCC 2998): > 10 µM (inactive)
- GI50 (HL-60): > 10 µM (inactive)
- GI50 (Hs-578T): > 10 µM (inactive)
- GI50 (MDA-MB-231): > 10 µM (inactive)
- GI50 (OVCAR-8): > 10 µM (inactive)
- GI50 (Malme-3M): > 10 µM (inactive)
- GI50 (SNB-75): > 10 µM (inactive)
- GI50 (K562): > 10 µM (inactive)
- GI50 (HCT-116): > 10 µM (inactive)
- GI50 (HOP-62): > 10 µM (inactive)
- GI50 (ACHN): > 10 µM (inactive)
- GI50 (SW-620): > 10 µM (inactive)
- GI50 (BT-549): > 10 µM (inactive)
- GI50 (SF-295): > 10 µM (inactive)
- GI50 (MDA-MB-435): > 10 µM (inactive)
- GI50 (SK-MEL-5): > 10 µM (inactive)
- GI50 (SK-OV-3): > 10 µM (inactive)
- GI50 (NCI-H23): > 10 µM (inactive)
- GI50 (SF-539): > 10 µM (inactive)
- GI50 (RXF 393): > 10 µM (inactive)
- GI50 (MDA-N): > 10 µM (inactive)
- GI50 (SK-MEL-2): > 10 µM (inactive)
